Assay results from patent US11892406B2, “Method and device for assaying the interaction and dynamics of permeation of a molecule and a lipid bilayer” (DUBLIN CITY UNIVERSITY, priority 2018, dated 2024).
Blank lines part the entries; values can stand above or below the molecule they belong to.

Key:
Format in all cases: in vitro ADME
[1] = Metal enhanced fluorescence permeation assay, DOPC bilayer spanned over gold microcavity array
Experimental: (§1) Following removal of PS spheres, if in place, washing and aqueous filling of the array a Langmuir monolayer of lipids was spread across the micropore array, using either a Model 102M, LB trough or Model KN2006 from KSV-NIMA technology, LB alternate. The lipid mixture (across single or diverse lipid compositions) was prepared in chloroform at a concentration of 1 mg/ml. 50 μL of this solution was suspended on the water sub-phase. Fifteen minutes were allocated for evaporation of the solvent, prior to lipid monolayer compression. […]
(§2) A Horiba Labram HR instrument was used for both Raman and fluorescence measurements using a 50× long distance magnification objective (Leica). The wavelengths were typically 473 nm and 785 nm were used for fluorescence measurements and Raman measurements respectively. […] Typically a 1% neutral density filter and 300 μm slit were used for fluorescence and no filter for Raman. […]
(§3) For drug/molecular diffusion studies, drug solutions were prepared as stock solutions for introduction into the bilayer contacting solution dissolved in PBS or Tris buffer at concentrations that permitted final concentrations (on contact with the bilayer buffer) of 1 nM to several millimolar. […] Drug diffusion samples were analysed by first obtaining a bilayer spectra while sample is immersed in PBS. […]

[2] = Metal enhanced fluorescence permeation assay, ternary domain forming lipid bilayer on gold microcavity array; conditions: 0.1 mM
Experimental: as §1, §2, §3

[3] = SERS permeation assay, DOPC lipid bilayer suspended over gold cavity array; conditions: 1 um gold array, PBS buffer, 785 nm
Experimental: as §1, §2, §3

- permeation through DOPC bilayer (fluorescent peak area at 600 nm vs time) ([1]; 0.1 mM, 2-hour monitoring, 1 μm diameter gold array): diffusing through the bilayer
SMILES: COc1cccc2c1C(=O)c1c(O)c3c(c(O)c1C2=O)C[C@@](O)(C(=O)CO)C[C@@H]3O[C@H]1C[C@H](N)[C@H](O)[C@H](C)O1 [Doxorubicin]

- permeability of ternary lipid bilayer to the drug ([2]; 2-hour window, two replicate measurements, DOPC:SM:Chol 40:40:20): impermeable
SMILES: COc1cccc2c1C(=O)c1c(O)c3c(c(O)c1C2=O)C[C@@](O)(C(C)=O)C[C@@H]3O[C@H]1C[C@H](N)[C@H](O)[C@H](C)O1 [Duanorubicin]
- time for emission to reach steady state ([2]; unstirred solution, ternary bilayer): less than 20 mins

- permeability across DOPC bilayer (dynamics of evolution of SERS signal, presence vs absence of bilayer) [3]: passively permeable
SMILES: CC(C)Cc1ccc(C(C)C(=O)O)cc1 (centres unmarked) [Ibuprofen]

SMILES: [Ru+2].c1ccc(-c2ccccn2)nc1.c1ccc(-c2ccccn2)nc1.c1ccc(-c2ccccn2)nc1 [[Ru(bpy)3[ complex]
- membrane permeability at DOPC bilayers (second emission rise and plateau) ([1]; DOPC bilayers, fluorescence): impermeable
